Experimental data reported in US20240130988A1, “Use of stilbene compounds in the preparation of anti-tumor drugs” (Guangzhou AnHao Pharmaceutical Technology CO., LTD., priority 2022, published 2024).
Marks after values point to notes of the source that are not given here.

How the values were obtained:
[1] = test system: LLC (mouse lung cancer cells); assay: Enrichment of CD8+ cytotoxic T lymphocytes in tumor tissue, Lewis non-small cell lung cancer model of mice; type: in vivo; details: 400 mg/kg ip once a day for 10 days; for The ratio of CD8^+ in total immune cells of tumor tissues (%): flow cytometry; for The ratio of distribution area in tumor tissues (%): CD8+ immunohistochemistry
Method: LLC (mouse lung cancer cells) were a mouse Lewis lung cancer cells.
The modeling method for LLC cell lung cancer in mice was as follows:
LLC cells were cultured in the general medium containing 10% fetal bovine serum and 100 μg/mL of double antibody (penicillin±streptomycin), and then cultivated in a 37° C., 5% CO2 cell incubator for routine incubation. LLC cells, that had grown to logarithmic phase, were digested with 0.25% trypsin (containing EDTA) to form a cell suspension, which was centrifuged at 1000 rpm/min for 3 min. The supernatant was discarded, and cell precipitates were collected, that were resuspended in culture medium without serum and double antibody. The cell suspension was further centrifuged to adjust the volume under the same conditions with the aid of cell counting, so as to prepare a cell suspension at a concentration of […] was injected into the right abdomen of each mouse, to complete the inoculation of tumor cells. The tumor was allowed to grew about 10 days, and the volume reached around 100 mm^3, before the mice were treated with test compounds.
Drug preparation: compounds 1-13 of the present invention were respective prepared into an injection with injection water.
Experimental methods: The model mice with LLC cell lung cancer were treated by intraperitoneal administration of 400 mg/kg injection containing the compound of the present invention. The model mice were divided into a negative control group (model mice only receiving equal volume of injection water by intraperitoneal administration) and treatment groups (model mice receiving the injection prepared with the compound of the present invention by intraperitoneal administration). The intraperitoneal injection regimen was carried out by injecting once a day at the pre-determined time. Before administration, the mice were weighed, and then treated with the injection at a dosage of 10 mL/kg, After successive administration for 10 days, that is, on the 10th day after receiving treatment, the mice were sacrificed, and the subcutaneous tumors were stripped to detect the ratio of cytotoxic T lymphocyte antigen CD8^+ in tumor tissues of the negative group and the treatment group by flow cytometry.
CD8^+ tumor-infiltrating lymphocytes in tumor tissues were detected by flow cytometry. The specific steps were as follows:
The mice were sacrificed, and then the abdominal epidermis of the mice was cut open using ophthalmic scissors, to fully expose the subcutaneous tumors. The subcutaneous tumor tissues on the right side of the mouse's abdomen were gradually peeled off with tweezers and ophthalmic scissors. After rinsing with PBS, the stripped tumor tissues were cut into about 1 mm using ophthalmic scissors, and then placed in 3 mL of PBS buffer containing 100 μg/mL of hyaluronidase. A centrifuge tube containing a dispersed liquid was placed in a water bath and kept at 37° C. for 20 min. A pipette was used to blow and shake the digestive tumor tissues every 5 minutes to fully digest. The dispersed liquid containing undigested tumor tissues was filtered through a 70 μm stainless steel cell screen, and the remaining undigested tumor tissues were ground using a push rod of 20 mL syringe on 70 μm cell screen and rinsed 5 times with 1 mL of PBS while grinding. The cell suspension passing the cell screen was transferred to a 15 mL centrifuge tube, and centrifuged at 4000 rpm for 3 min. Then, cell precipitates were collected, to which was added 2 mL of red cell lysis buffer, and rested for 10 min, followed by centrifuging at 4000 rpm for 3 min. After washing with PBS, the cells were resuspended by adding 2-3 mL of PBS.
An appropriate amount of cell suspension was used as the sample for flow cytometry, and after counting, the cell suspension was adjusted to have a concentration of 5×10^6/mL. 100 μL of cell suspension was added to a test tube with a pipettor. […]

[2] = test system: human ovarian cancer A2780; assay: Human ovarian cancer A2780 transplanted tumor in nude mice; type: in vivo, BALB/C nude mice; details: A2780, 200 mg/kg ip × 14
Method: A human ovarian cancer A2780 model transplanted into nude mice was used in the experiment to investigate the anti-tumor effect of test compounds.
(§1) Preparation: The compound was prepared as the injection at the desired concentration with sterile normal saline, prior to administration.
Animal strain: BALB/C nude mice (SPF grade), weight: 19-21 g, gender: male.
Number of animals in each treatment group: 8; number of animals in the control group: >12.
(§2) The tumor blocks of human ovarian cancer A2780 growing well were cut into uniform small pieces of 3 mm under sterile conditions, and then subcutaneously inoculated into the right armpit of each mouse with a cannula. The mice were divided into 9 groups, 8 mice for each treatment group, while >12 mice were included in the control group.
(§3) 14 days after inoculation, the average volume of the tumor block was about 100 mm^3. The animals were regrouped based on the size of the tumor, and the animals with tumors that were too large and too small were sifted out. For each group, the average volume of tumors was basically the same, and then the mice were initially treated with test compounds. The mice were intraperitoneally injected once a day for 14 days, at a dosage of 0.2 mL/20 g body weight; the mice in the control group were given the same volume of sterile normal saline. From the 14th day of inoculation, the long diameter a (mm) of the tumor, together with the perpendicular short diameter b (mm), was measured using a digital electronic caliper, twice a week. The calculation formula of tumor volume is: TV=ab^2/2, and the formula for calculating the relative tumor volume is RTV=Vt/Vo, wherein Vo denotes the tumor volume measured when the mice were divided into groups (i.e. d1), and Vt is the tumor volume from each measurement.
(§4) The result determination is based on the following formula: […]

[3] = test system: human renal cell carcinoma AGHN; assay: Human renal cell carcinoma AGHN transplanted tumor in nude mice; type: in vivo, BALB/C nude mice
Method: A human renal cell carcinoma AGHN model transplanted into nude mice was used in the experiment to investigate the anti-tumor effect of test compounds. […] AGHN was measured.
as §1
Animal strain: BALB/C, nude mice (SPF grade), weight: 19-21 g, gender: male. Number of animals in each treatment group: 8; number of animals in the control group: >12.
as §2, with “renal cell carcinoma AGHN with good growth” for “ovarian cancer A2780 growing well”
as §3, with “about 100 mm^3, The animals” for “about 100 mm^3. The animals”, “tumor volume is: RTV=Vt/Vo, wherein” for “tumor volume is RTV=Vt/Vo, wherein”, “and Vt denotes the tumor” for “and Vt is the tumor”
as §4

Structure (SMILES): COc1ccc(/C=C(/C(=O)O)c2cc(OC)c(OC)c(OC)c2)c(O)c1O [Compound 1, (E)-3-(2,3-dihydroxy-4-methoxyphenyl)-2-(3,4,5-trimethoxylphenyl)acrylic acid]
- The ratio of CD8^+ in total immune cells of tumor tissues (%) ([1]; 400 mg/kg): 0.0605 ± 0.0124%
- RTV (d 18) [2]: 5.63 ± 0.72
- Tumor inhibitory rate % [2]: 45.39^## %
- RTV (d 18) ([3]; 200 mg/kg ip × 14): 6.31 ± 0.91
- Tumor inhibitory rate % ([3]; 200 mg/kg ip × 14): 54.24^## %

Structure (SMILES): COc1cc(/C=C(/C(=O)O)c2cc(OC)c(OC)c(OC)c2)cc(OC)c1 [Compound 3, (E)-3-(3,5-dimethoxyphenyl)-2-(3,4,5-trimethoxyphenyl)acrylic acid]
- The ratio of distribution area in tumor tissues (%) [1]: 6.731 ± 0.5692%
- The ratio of CD8^+ in total immune cells of tumor tissues (%) [1]: 0.0762 ± 0.0103%
- RTV (d 18) ([3]; 200 mg/kg ip × 14): 5.47 ± 0.82
- Tumor inhibitory rate % ([3]; 200 mg/kg ip × 14): 60.33^# %

Structure (SMILES): COc1ccc(/C=C(/C(=O)O)c2cc(OC)c(OC)c(OC)c2)cc1F [Compound 4, (E)-3-(3-fluoro-4-methoxyphenyl)-2-(3,4,5-trimethoxyphenyl)acrylic acid]
- The ratio of distribution area in tumor tissues (%) [1]: 6.872 ± 0.7633%
- The ratio of CD8^+ in total immune cells of tumor tissues (%) [1]: 0.0787 ± 0.0122%
- RTV (d 18) [2]: 4.51 ± 0.67
- Tumor inhibitory rate % [2]: 56.26^## %
- RTV (d 18) ([3]; 200 mg/kg ip × 14): 4.31 ± 0.58
- Tumor inhibitory rate % ([3]; 200 mg/kg ip × 14, 200 mg/kg): 68.75%
- Tumor inhibitory rate % ([3]; 200 mg/kg ip × 14, listed as compound 4, 200 mg/kg): best inhibitory effect on renal cell carcinoma

Structure (SMILES): COc1ccc(/C=C(/C(=O)O)c2cc(OC)c(OC)c(OC)c2)cc1O [Compound 6, (E)-3-(3-hydroxy-4-methoxyphenyl)-2-(3,4,5-trimethoxyphenyl)acrylic acid]
- The ratio of CD8^+ in total immune cells of tumor tissues (%) [1]: 0.0814 ± 0.0118%
- RTV (d 18) [2]: 3.58 ± 0.49
- Tumor inhibitory rate % [2]: 65.28%
- Tumor inhibitory rate % ([2]; listed as compound 6): best inhibitory effect on ovarian cancer
- RTV (d 18) ([3]; 200 mg/kg ip × 14): 6.53 ± 0.85
- Tumor inhibitory rate % ([3]; 200 mg/kg ip × 14): 52.64^## %

Structure (SMILES): COc1cc(/C(=C\c2cc(O)c(OC)c(F)c2)C(=O)O)cc(OC)c1OC [Compound 8, (E)-3-(5-fluoro-3-hydroxy-4-methoxyphenyl)-2-(3,4,5-trimethoxyphenyl)acrylic acid]
- The ratio of CD8^+ in total immune cells of tumor tissues (%) [1]: 0.0735 ± 0.0127%
- RTV (d 18) [2]: 5.21 ± 0.47
- Tumor inhibitory rate % [2]: 49.47^## %
- RTV (d 18) ([3]; 200 mg/kg ip × 14): 6.22 ± 0.63
- Tumor inhibitory rate % ([3]; 200 mg/kg ip × 14): 54.89^## %

Structure (SMILES): COc1ccc(/C=C(/C(=O)O)c2cc(OC)c(OC)c(OC)c2)c(F)c1O [Compound 9, (E)-3-(2-fluoro-3-hydroxy-4-methoxyphenyl)-2-(3,4,5-trimethoxyphenyl)acrylic acid]
- The ratio of CD8^+ in total immune cells of tumor tissues (%) [1]: 0.0753 ± 0.0123%
- RTV (d 18) [2]: 4.37 ± 0.62
- Tumor inhibitory rate % [2]: 57.61^# %
- RTV (d 18) ([3]; 200 mg/kg ip × 14): 5.12 ± 0.77
- Tumor inhibitory rate % ([3]; 200 mg/kg ip × 14): 62.87^# %

Structure (SMILES): COc1cc(/C=C(/C(=O)[O-])c2cc(OC)c(OC)c(OC)c2)cc(OC)c1F.[K+] [Compound 10]
- The ratio of distribution area in tumor tissues (%) [1]: 5.847 ± 0.6349%
- The ratio of CD8^+ in total immune cells of tumor tissues (%) [1]: 0.0623 ± 0.0114%
- RTV (d 18) [2]: 4.26 ± 0.73
- Tumor inhibitory rate % [2]: 58.68^# %

Structure (SMILES): COc1cc(/C(=C\c2cc(O)c(OC)c(O)c2)C(=O)O)cc(OC)c1OC [Compound 11, (E)-3-(3,5-dihydroxy-4-methoxyphenyl)-2-(3,4,5-trimethoxyphenyl)acrylic acid]
- The ratio of CD8^+ in total immune cells of tumor tissues (%) [1]: 0.0653 ± 0.0122%
